Data from PubChem BioAssay AID192 (DTP/NCI, 2004).
Values joined by “and” are separate entries in the source; they are usually repeats but may differ in a detail not shown here. Equal entries are not always repeated. Toxic doses and inconclusive results are not listed. Rule for the calls: active = survival T/C of 150% or more; inactive = T/C below 125% in these data.

System: BDF1 mice, B16 melanoma ip, median survival T/C
Assay: NCI In Vivo Anticancer Drug Screen. Data for tumor model B16 Melanoma (intraperitoneal) in B6D2F1 (BDF1) mice
Conditions: endpoint: median survival time, higher = longer survival
In short: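 Antitumor activity is assessed in mice bearing a transplanted tumor, with survival or tumor size compared against vehicle-dosed controls and expressed as T/C.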

[1] = dose: 6.25 mg/kg/injection, schedule: Q01DX009 (ip), vehicle: saline
[2] = dose: 12.5 mg/kg/injection, schedule: Q01DX009 (ip), vehicle: saline
[3] = dose: 25.0 mg/kg/injection, schedule: Q01DX009 (ip), vehicle: saline
[4] = dose: 25.0 mg/kg/injection, schedule: Q01DX009 (ip), vehicle: saline with Tween-80
[5] = dose: 50.0 mg/kg/injection, schedule: Q01DX009 (ip), vehicle: saline with Tween-80
[6] = dose: 100.0 mg/kg/injection, schedule: Q01DX009 (ip), vehicle: saline with Tween-80
[7] = dose: 12.5 mg/kg/injection, schedule: Q01DX009 (ip), vehicle: saline with Tween-80
[8] = dose: 3.12 mg/kg/injection, schedule: Q01DX009 (ip), vehicle: saline
[9] = dose: 200.0 mg/kg/injection, schedule: Q01DX009 (ip), vehicle: saline with Tween-80
[10] = dose: 400.0 mg/kg/injection, schedule: Q01DX009 (ip), vehicle: saline with Tween-80
[11] = dose: 100.0 mg/kg/injection, schedule: Q01DX009 (ip), vehicle: Klucel (hydroxypropylcellulose) (HPC)
[12] = dose: 200.0 mg/kg/injection, schedule: Q01DX009 (ip), vehicle: Klucel (hydroxypropylcellulose) (HPC)
[13] = dose: 25.0 mg/kg/injection, schedule: Q01DX009 (ip), vehicle: Klucel (hydroxypropylcellulose) (HPC)
[14] = dose: 50.0 mg/kg/injection, schedule: Q01DX009 (ip), vehicle: Klucel (hydroxypropylcellulose) (HPC)
[15] = dose: 6.25 mg/kg/injection, schedule: Q01DX009 (ip), vehicle: saline with Tween-80

Measured: T/C

COc1ccc2c(ccc[n+]2C)c1
inactive: [1] 93 % of control | [2] 90 % of control | dose: 12.5 mg/kg/injection, schedule: Q04DX003 (ip), vehicle: saline 100 % of control | [3] 95 % of control | dose: 25.0 mg/kg/injection, schedule: Q04DX003 (ip), vehicle: saline 100 % of control | dose: 50.0 mg/kg/injection, schedule: Q04DX003 (ip), vehicle: saline 104 % of control

O=C(O)c1cc2ccccc2o1
inactive: dose: 16.5 mg/kg/injection, schedule: Q01DX009 (ip), vehicle: saline with Tween-80 100 % of control | [4] 100 % of control | dose: 37.5 mg/kg/injection, schedule: Q01DX009 (ip), vehicle: saline with Tween-80 92 % of control | [5] 111 % of control | [6] 102 % of control

CCCC(C(CC)CN(C)C)N(C)C (centres undefined)
inactive: [7] 90 % of control | [4] 96 % of control | [5] 94 % of control

CN1CCCCC1CCN1c2ccccc2Sc2ccc(Br)cc21 (centres undefined)
inactive: dose: 0.78 mg/kg/injection, schedule: Q01DX009 (ip), vehicle: saline 109 % of control | [8] 105 % of control | [1] 107 % of control | [2] 96 % of control

CCOC(=O)c1ccc(NCC#N)cc1
inactive: [6] 94 % of control | [9] 97 % of control | [10] 105 % of control

O=C1c2ccccc2C(=O)N1CC[P+](c1ccccc1)(c1ccccc1)c1ccccc1
inactive: dose: 1.56 mg/kg/injection, schedule: Q01DX009 (ip), vehicle: water 98 % of control | dose: 3.13 mg/kg/injection, schedule: Q01DX009 (ip), vehicle: water 100 % of control | dose: 6.25 mg/kg/injection, schedule: Q01DX009 (ip), vehicle: water 109 % of control | dose: 12.5 mg/kg/injection, schedule: Q01DX009 (ip), vehicle: water 107 % of control

CCN(CC)CCOCCO
inactive: dose: 25.0 mg/kg/injection, schedule: Q01DX009 (ip), vehicle: suspension in saline 107 % of control | dose: 50.0 mg/kg/injection, schedule: Q01DX009 (ip), vehicle: suspension in saline 95 % of control | dose: 100.0 mg/kg/injection, schedule: Q01DX009 (ip), vehicle: suspension in saline 105 % of control | dose: 200.0 mg/kg/injection, schedule: Q01DX009 (ip), vehicle: suspension in saline 96 % of control

CCN(CC)C(=S)SC(=S)N(CC)CC
inactive: [6] 96 % of control | [9] 103 % of control | [10] 93 % of control

COc1cc2c(c(OC)c1O)-c1ccc(OC)c(=O)cc1[C@@H](NC(=O)C(F)(F)F)CC2
inactive: dose: 0.62 mg/kg/injection, schedule: Q01DX009 (ip), vehicle: Klucel (hydroxypropylcellulose) (HPC) 121 % of control | dose: 1.25 mg/kg/injection, schedule: Q01DX009 (ip), vehicle: Klucel (hydroxypropylcellulose) (HPC) 117 % of control and 124 % of control | dose: 2.5 mg/kg/injection, schedule: Q01DX009 (ip), vehicle: Klucel (hydroxypropylcellulose) (HPC) 116 % of control | dose: 5.0 mg/kg/injection, schedule: Q01DX009 (ip), vehicle: Klucel (hydroxypropylcellulose) (HPC) 118 % of control

CN(CC(=O)NC(Cc1c[nH]c2ccccc12)C(=O)O)C(=O)OCc1ccccc1 (centres undefined)
inactive: [5] 113 % of control | [6] 106 % of control | [9] 104 % of control | [10] 100 % of control

Cc1ccc(CNc2ccc(Br)cc2)cc1
inactive: [11] 94 % of control | [12] 91 % of control

CN(C)CCN1C(=O)CC(c2ccccc2)Sc2ccccc21 (centres undefined)
inactive: [8] 115 % of control | [1] 112 % of control | [2] 107 % of control | [3] 97 % of control

CCCCOCN(COCCCC)C(C)Cc1ccccc1 (centres undefined)
inactive: [7] 95 % of control and 100 % of control | [4] 98 % of control and 104 % of control | [5] 99 % of control and 105 % of control | [6] 106 % of control and 110 % of control | [9] 90 % of control and 100 % of control

C=C(C)C(=O)OC1C/C(CO)=C\C(O)C/C(C)=C/C2OC(=O)C(=C)C21 (centres undefined)
inactive: dose: 1.25 mg/kg/injection, schedule: Q01DX009 (ip), vehicle: saline + alcohol 110 % of control | dose: 2.5 mg/kg/injection, schedule: Q01DX009 (ip), vehicle: saline + alcohol 90 % of control | dose: 5.0 mg/kg/injection, schedule: Q01DX009 (ip), vehicle: saline + alcohol 92 % of control | dose: 10.0 mg/kg/injection, schedule: Q01DX009 (ip), vehicle: saline + alcohol 100 % of control | dose: 20.0 mg/kg/injection, schedule: Q01DX009 (ip), vehicle: saline + alcohol 91 % of control | dose: 40.0 mg/kg/injection, schedule: Q01DX009 (ip), vehicle: saline + alcohol 95 % of control

CC(=O)/C=C(\C)OC1CCCCC1
inactive: [5] 113 % of control | [6] 104 % of control | [9] 92 % of control

O=C(NNCc1ccccc1)c1ccccn1
inactive: dose: 6.25 mg/kg/injection, schedule: Q01DX009 (ip), vehicle: Klucel (hydroxypropylcellulose) (HPC) 90 % of control | [13] 90 % of control | [14] 88 % of control and 100 % of control

CC(C)CN(CCCCO)CC(C)C
inactive: [5] 102 % of control | [6] 111 % of control | [9] 98 % of control

NC(=O)c1ncn(C2OC(CO)C(O)C2O)c1O (centres undefined)
inactive: [13] 104 % of control | [14] 114 % of control | [11] 109 % of control | [12] 111 % of control

COc1ccc(OC)c(NC=O)c1
inactive: [15] 91 % of control | [7] 106 % of control | [4] 90 % of control and 97 % of control

CCCCCCC(=O)CCCCCCCCCCCCC(=O)OC
inactive: dose: 1.56 mg/kg/injection, schedule: Q01DX009 (ip), vehicle: saline with Tween-80 98 % of control | dose: 3.13 mg/kg/injection, schedule: Q01DX009 (ip), vehicle: saline with Tween-80 105 % of control | [15] 97 % of control

CCOC(=O)C(=CN1CCOCC1)C(=O)OCC
inactive: [6] 90 % of control | dose: 100.0 mg/kg/injection, schedule: Q04DX003 (ip), vehicle: saline with Tween-80 100 % of control | [9] 98 % of control | dose: 200.0 mg/kg/injection, schedule: Q04DX003 (ip), vehicle: saline with Tween-80 102 % of control | [10] 98 % of control | dose: 400.0 mg/kg/injection, schedule: Q04DX003 (ip), vehicle: saline with Tween-80 109 % of control

CC(CN=Cc1ccccc1O)N=Cc1ccccc1O (centres undefined)
inactive: dose: 12.5 mg/kg/injection, schedule: Q01DX009 (ip), vehicle: Klucel (hydroxypropylcellulose) (HPC) 91 % of control | [13] 88 % of control | [14] 87 % of control | [11] 89 % of control

NNC(=O)c1ccncc1
inactive: [2] 111 % of control | dose: 16.0 mg/kg/injection, schedule: Q01DX009 (ip), vehicle: saline 98 % of control | [3] 100 % of control | dose: 32.0 mg/kg/injection, schedule: Q01DX009 (ip), vehicle: saline 98 % of control | dose: 50.0 mg/kg/injection, schedule: Q01DX009 (ip), vehicle: saline 105 % of control | dose: 64.0 mg/kg/injection, schedule: Q01DX009 (ip), vehicle: saline 100 % of control | dose: 100.0 mg/kg/injection, schedule: Q01DX009 (ip), vehicle: saline 111 % of control | dose: 128.0 mg/kg/injection, schedule: Q01DX009 (ip), vehicle: saline 90 % of control
